Reference: US20220081412A1, “QUINOLINYL-PYRAZINE-CARBOXAMIDE COMPOUNDS AND USES THEREOF” (The Regents of the University of Michigan, priority 2018, published 2022)
Like-named read-outs stand apart in the source and are kept apart here.

Test system: MIA PaCa-2 cells
Assay: Bru-seq analysis for nascent RNA synthesis (log2FC of genes, GSEA gene sets)
Format: cell-based, human
[1] = ACEVEDO_LIVER_CANCER_WITH_H3K27ME3_UP, C2, downregulated, 4 h
[2] = ACTWSNACTNY_UNKNOWN, TFBT, upregulated, 4 h
[3] = AP1_Q4_01, TFBT, upregulated, 4 h
[4] = BACH1_01, TFBT, upregulated, 4 h
[5] = BACH2_01, TFBT, upregulated, 4 h
[6] = BEGUM_TARGETS_OF_PAX3_FOXO1_FUSION_UP, C2, downregulated, 4 h
[7] = CCCNNNNNNAAGWT_UNKNOWN, TFBT, upregulated, 4 h
[8] = DACOSTA_UV_RESPONSE_VIA_ERCC3_COMMON_DN, C2, downregulated, 4 h
[9] = DACOSTA_UV_RESPONSE_VIA_ERCC3_XPCS_DN, C2, downregulated, 4 h
[10] = DAZARD_UV_RESPONSE_CLUSTER_G6, C2, downregulated, 4 h
[11] = DE_YY1_TARGETS_DN, C2, downregulated, 4 h
[12] = DOANE_BREAST_CANCER_CLASSES_DN, C2, downregulated, 4 h
[13] = EVI1_05, TFBT, upregulated, 4 h
[14] = GABRIELY_MIR21_TARGETS, C2, downregulated, 4 h
[15] = GATGKMRGCG_UNKNOWN, TFBT, upregulated, 4 h
[16] = GCCNNNWTAAR_UNKNOWN, TFBT, upregulated, 4 h
[17] = GGAANCGGAANY_UNKNOWN, TFBT, upregulated, 4 h
[18] = GGCNRNWCTTYS_UNKNOWN, TFBT, upregulated, 4 h
[19] = GGGYGTGNY_UNKNOWN, TFBT, upregulated, 4 h
[20] = GO_ALCOHOL_BIOSYNTHETIC_PROCESS, upregulated, 4 h
[21] = GO_ALCOHOL_METABOLIC_PROCESS, upregulated, 4 h
[22] = GO_CELLULAR_RESPONSE_TO_TOPOLOGICALLY_INCORRECT_PROTEIN, upregulated, 4 h
[23] = GO_CHROMATIN_ASSEMBLY_OR_DISASSEMBLY, upregulated, 4 h
[24] = GO_CHROMATIN_SILENCING_AT_RDNA, upregulated, 4 h
[25] = GO_CYTOSOLIC_LARGE_RIBOSOMAL_SUBUNIT, upregulated, 4 h
[26] = GO_CYTOSOLIC_RIBOSOME, upregulated, 4 h
[27] = GO_DNA_PACKAGING, upregulated, 4 h
[28] = GO_DNA_PACKAGING_COMPLEX, upregulated, 4 h
[29] = GO_HEXOSE_METABOLIC_PROCESS, upregulated, 4 h
[30] = GO_INTRINSIC_COMPONENT_OF_ENDOPLASMIC_RETICULUM_MEMBRANE, upregulated, 4 h
[31] = GO_IRE1_MEDIATED_UNFOLDED_PROTEIN_RESPONSE, upregulated, 4 h
[32] = GO_NEGATIVE_REGULATION_OF_RESPONSE_TO_OXIDATIVE_STRESS, upregulated, 4 h

## Cc1cc(NC(=O)c2cnc(N3CCNCC3)cn2)c2ncccc2c1 [J28, N-(6-methylquinolin-8-yl)-5-(piperazin-1-yl)pyrazine-2-carboxamide]
  ES: 0.474
  KEGG gene sets SYSTEMIC_LUPUS_ERYTHEMATOSUS and LYSOSOME: upregulation
  NES: 1.626
  cholesterol biosynthesis pathway (curated gene sets): enrichment
  expression of genes like INSIG1, DHCR7, MVK and FASN: Overexpression
  synthesis of PCYT2, DOLK and HIST1H3B RNAs: upregulated in a dose-dependent manner
4 h
  expression of ZNF816, IFT80, CACNG8 and GPR135: significant decrease
4 h of treatment
  Cell Cycle, Mitotic pathway: upregulated
AC005614.2, downregulated noncoding gene, 4 h
  log2FC: −1.01
AC005726.2, downregulated protein-coding gene, 4 h
  log2FC: −0.99
AC006141.1, downregulated noncoding gene, 4 h
  log2FC: −1.18
AC007038.2, downregulated noncoding gene, 4 h
  log2FC: −1.08
AC007099.1, downregulated noncoding gene, 4 h
  log2FC: −1.04
AC007390.2, downregulated noncoding gene, 4 h
  log2FC: −1.54
AC007619.1, downregulated noncoding gene, 4 h
  log2FC: −1.30
AC009690.1, downregulated protein-coding gene, 4 h
  log2FC: −0.83
AC016949.1, downregulated noncoding gene, 4 h
  log2FC: −1.18
AC022335.1, downregulated protein-coding gene, 4 h
  log2FC: −0.86
AC022415.1, downregulated noncoding gene, 4 h
  log2FC: −1.20
AC040934.1, downregulated noncoding gene, 4 h
  log2FC: −0.97
AC046130.2, downregulated noncoding gene, 4 h
  log2FC: −1.16
AC091152.2, downregulated noncoding gene, 4 h
  log2FC: −1.18
AC135983.2, downregulated noncoding gene, 4 h
  log2FC: −1.16
AC244131.2, downregulated noncoding gene, 4 h
  log2FC: −1.22
[1]
  ES: −0.444
  NES: −1.897
[2]
  ES: 0.432
  NES: 1.640
ADNP-AS1, downregulated noncoding gene, 4 h
  log2FC: −1.07
AKAP5, downregulated protein-coding gene, 4 h
  log2FC: −0.90
AL596247.1, downregulated noncoding gene, 4 h
  log2FC: −2.37
[3]
  ES: 0.371
  NES: 1.550
AP001992.1, downregulated noncoding gene, 4 h
  log2FC: −1.36
[4]
  ES: 0.419
  NES: 1.762
[5]
  ES: 0.390
  NES: 1.654
[6]
  ES: −0.621
  NES: −2.034
CACNG8, downregulated protein-coding gene, 4 h
  log2FC: −1.10
[7]
  ES: 0.409
  NES: 1.550
CCDC190, downregulated protein-coding gene, 4 h
  log2FC: −0.91
CD274, downregulated protein-coding gene, 4 h
  log2FC: −0.90
CHML, downregulated protein-coding gene, 4 h
  log2FC: −0.94
CLEC2D, downregulated protein-coding gene, 4 h
  log2FC: −0.84
[8]
  ES: −0.448
  NES: −2.492
[9]
  ES: −0.520
  NES: −2.258
[10]
  ES: −0.434
  NES: −2.065
[11]
  ES: −0.471
  NES: −2.072
[12]
  ES: −0.562
  NES: −1.907
[13]
  ES: 0.421
  NES: 1.596
FERMT1, downregulated protein-coding gene, 4 h
  log2FC: −0.88
FP671120.1, downregulated noncoding gene, 4 h
  log2FC: −2.35
[14]
  ES: −0.470
  NES: −2.457
[15]
  ES: 0.462
  NES: 1.697
[16]
  ES: 0.442
  NES: 1.702
GCLM, downregulated protein-coding gene, 4 h
  log2FC: −0.85
GCNA, downregulated protein-coding gene, 4 h
  log2FC: −0.89
[17]
  ES: 0.421
  NES: 1.695
[18]
  ES: 0.424
  NES: 1.583
[19]
  ES: 0.361
  NES: 1.708
[20]
  ES: 0.573
  NES: 2.162
[21]
  ES: 0.457
  NES: 2.022
[22]
  ES: 0.504
  NES: 2.013
[23]
  ES: 0.470
  NES: 1.952
[24]
  ES: 0.713
  NES: 2.078
[25]
  ES: 0.536
  NES: 1.982
[26]
  ES: 0.516
  NES: 2.082
[27]
  ES: 0.468
  NES: 1.976
[28]
  ES: 0.727
  NES: 2.600
[29]
  ES: 0.500
  NES: 1.992
[30]
  ES: 0.508
  NES: 2.000
[31]
  ES: 0.556
  NES: 2.001
[32]
  ES: 0.743
  NES: 2.162
